Experiment [1] concerns the target T1, BTK (Homo sapiens, UniProt Q06187).
T1 construct: endogenous in cells; host or cells: TMD-8 cells
Kind of experiment: BTK degradation in TMD-8 cells (HTRF assay). As to conditions: 6 h treatment, HTRF BTK degradation IC50 (DC50). The format is cell-based. In outline:
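TMD-8 cells exposed to 8 concentrations (6-fold serial dilution from 1 mM 500× DMSO stocks; 0.2% DMSO final) for 6 h. Lysates incubated overnight at room temperature with HTRF antibodies, read at 665/620 nm. DC50 from four-parameter logistic fit of percent inhibition.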
For orientation: In TR-FRET formats the signal depends on donor and acceptor labels being close together.

The subject of experiment [2] is HEK-293 cells. Description: HEK-293 cytotoxicity detection (CellTiter-Glo). As to conditions: Homo sapiens, 72 h incubation, read-out: HEK293. The class given is cell-based. In outline: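 HEK-293 cells exposed 72 h to 8 compound concentrations (4-fold dilution series, 0.2% DMSO). Viability read as CellTiter-Glo luminescence; IC50 from four-parameter logistic fit of percent inhibition.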

The DC50 is the concentration at which degradation of the target reaches its halfway point. Low values mean degradation at low concentration, high ones degradation only at high concentration.

Bounds are passed on as bounds.

T1 sequence (Q06187 whole entry): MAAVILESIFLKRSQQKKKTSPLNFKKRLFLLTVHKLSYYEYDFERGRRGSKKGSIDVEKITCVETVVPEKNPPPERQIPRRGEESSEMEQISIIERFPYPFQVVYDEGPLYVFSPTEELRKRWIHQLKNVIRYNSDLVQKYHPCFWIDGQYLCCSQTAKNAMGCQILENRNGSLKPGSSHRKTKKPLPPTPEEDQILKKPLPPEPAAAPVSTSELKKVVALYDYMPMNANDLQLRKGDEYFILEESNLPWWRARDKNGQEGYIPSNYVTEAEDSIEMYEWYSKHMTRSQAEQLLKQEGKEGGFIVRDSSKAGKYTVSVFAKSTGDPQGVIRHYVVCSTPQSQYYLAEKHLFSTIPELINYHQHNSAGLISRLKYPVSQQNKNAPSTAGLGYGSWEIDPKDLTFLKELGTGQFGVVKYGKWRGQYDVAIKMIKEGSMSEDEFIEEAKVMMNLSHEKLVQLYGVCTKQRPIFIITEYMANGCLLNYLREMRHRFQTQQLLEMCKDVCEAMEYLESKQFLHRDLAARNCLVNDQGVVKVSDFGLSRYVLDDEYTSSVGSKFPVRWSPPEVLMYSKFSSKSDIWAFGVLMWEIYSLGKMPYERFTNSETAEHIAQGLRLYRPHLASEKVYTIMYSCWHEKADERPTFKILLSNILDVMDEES

Regarding `Cc1cc(-c2cc(Nc3ccc(N4CCN(CC5CCN(c6ccc(N7CCC(=O)NC7=O)cc6)CC5)CC4)c(C)n3)ncn2)ccc1[C@@H](C)NC(=O)c1nc(C(C)(C)C)no1` [Example 61, (R)-3-(tert-butyl)-N-(1-(4-(6-((5-(4-((1-(4-(2,4-dioxotetrahydropyrimidin-1(2H)-yl)phenyl)piperidin-4-yl)methyl)piperazin-1-yl)-6-methylpyridin-2-yl)amino)pyrimidin-4-yl)-2-methylphenyl)ethyl)-1,2,4-oxadiazole-5-carboxamide], the DC50 in experiment [1] was 1.65 nM. For the same molecule, in experiment [2], the IC50 is > 10 µM.

Consider `Cc1cc(-c2cc(Nc3cc(C)c(N4CCN(CC5CCN(c6ccc(N7CCC(=O)NC7=O)cc6)CC5)CC4)cn3)ncn2)ccc1[C@@H](C)NC(=O)c1nc(C(C)(C)C)no1` [Example 62], for which the DC50 in experiment [1] amounted to 12.3 nM. The IC50 in experiment [2] was > 10 µM.

In experiment [1], `COc1nc(Nc2cc(-c3ccc([C@@H](C)NC(=O)c4nc(C(C)(C)C)no4)c(C)c3)ncn2)ccc1N1CCN(CC2CCN(c3ccc(N4CCC(=O)NC4=O)cc3)CC2)CC1` [Example 63] displayed a DC50 of 0.979 nM. For the same molecule, the IC50 in experiment [2] turned out to be 0.614 µM.

In experiment [1], `COc1cc(Nc2cc(-c3ccc([C@@H](C)NC(=O)c4nc(C(C)(C)C)no4)c(C)c3)ncn2)ncc1N1CCN(CC2CCN(c3ccc(N4CCC(=O)NC4=O)cc3)CC2)CC1` [Example 64, (R)-3-(tert-butyl)-N-(1-(4-(6-((5-(4-((1-(4-(2,4-dioxotetrahydropyrimidin-1(2H)-yl)phenyl)piperidin-4-yl)methyl)piperazin-1-yl)-4-methoxypyridin-2-yl)amino)pyrimidin-4-yl)-2-methylphenyl)ethyl)-1,2,4-oxadiazole-5-carboxamide] gave a DC50 of 26 nM. The IC50 in experiment [2] was > 10 µM.

On to `Cc1cc(-c2cc(Nc3cc(F)c(N4CCN(CC5CCN(c6ccc(N7CCC(=O)NC7=O)cc6)CC5)CC4)cn3)ncn2)ccc1[C@@H](C)NC(=O)c1nc(C(C)(C)C)no1` [Example 65], for which the DC50 in experiment [1] was 3.7 nM. For the same molecule, the IC50 in experiment [2] was > 10 µM.

For the molecule `Cc1cc(-c2ccnc(Nc3ccc(N4CCN(CC5CCN(c6ccc(N7CCC(=O)NC7=O)cc6)CC5)CC4)c(F)n3)n2)ccc1[C@@H](C)NC(=O)c1nc(C(C)(C)C)no1` [Example 66, (R)-3-(tert-butyl)-N-(1-(4-(2-((5-(4-((1-(4-(2,4-dioxotetrahydropyrimidin-1(2H)-yl)phenyl)piperidin-4-yl)methyl)piperazin-1-yl)-6-fluoropyridin-2-yl)amino)pyrimidin-4-yl)-2-methylphenyl)ethyl)-1,2,4-oxadiazole-5-carboxamide], the DC50 in experiment [1] stood at 2.93 nM. Further, the IC50 in experiment [2] was > 10 µM.

`Cc1cc(-c2ccnc(Nc3ccc(N4CCN(CC5CCN(c6ccc(N7CCC(=O)NC7=O)cc6)CC5)CC4)cn3)n2)ccc1[C@@H](C)NC(=O)c1nc(C(C)(C)C)no1` [Example 67, (R)-3-(tert-butyl)-N-(1-(4-(2-((5-(4-((1-(4-(2,4-dioxotetrahydropyrimidin-1(2H)-yl)phenyl)piperidin-4-yl)methyl)piperazin-1-yl)pyridin-2-yl)amino)pyrimidin-4-yl)-2-methylphenyl)ethyl)-1,2,4-oxadiazole-5-carboxamide] showed a DC50 in experiment [1] of 10.6 nM. In addition, the IC50 in experiment [2] was > 10 µM.

Consider `Cc1cc(-c2ccnc(Nc3ccc(N4CCN(C5CC6(CCN(c7ccc(N8CCC(=O)NC8=O)cc7)CC6)C5)CC4)cn3)n2)ccc1[C@@H](C)NC(=O)c1nc(C(C)(C)C)no1` [Example 68, (R)-3-(tert-butyl)-N-(1-(4-(2-((5-(4-(7-(4-(2,4-dioxotetrahydropyrimidin-1(2H)-yl)phenyl)-7-azaspiro[3.5]nonan-2-yl)piperazin-1-yl)pyridin-2-yl)amino)pyrimidin-4-yl)-2-methylphenyl)ethyl)-1,2,4-oxadiazole-5-carboxamide], for which the DC50 in experiment [1] worked out at 17.4 nM. Further, the IC50 in experiment [2] is > 10 µM.

For the molecule `Cc1cc(-c2ccnc(Nc3ccc(N4CCN(CC5CCN(c6ccc(N7CCC(=O)NC7=O)cc6)CC5)CC4)cc3)n2)ccc1[C@@H](C)NC(=O)c1nc(C(C)(C)C)no1` [Example 69, (R)-3-(tert-butyl)-N-(1-(4-(2-((4-(4-((1-(4-(2,4-dioxotetrahydropyrimidin-1(2H)-yl)phenyl)piperidin-4-yl)methyl)piperazin-1-yl)phenyl)amino)pyrimidin-4-yl)-2-methylphenyl)ethyl)-1,2,4-oxadiazole-5-carboxamide], the DC50 in experiment [1] came to 2.42 nM. In addition, the IC50 in experiment [2] is > 10 µM.

`Cc1cc(-c2ncnc(Nc3ccc(N4CCN(CC5CCN(c6ccc(N7CCC(=O)NC7=O)cc6)CC5)CC4)cn3)c2F)ccc1[C@@H](C)NC(=O)c1nc(C(C)(C)C)no1` [Example 70, (R)-3-(tert-butyl)-N-(1-(4-(6-((5-(4-((1-(4-(2,4-dioxotetrahydropyrimidin-1(2H)-yl)phenyl)piperidin-4-yl)methyl)piperazin-1-yl)pyridin-2-yl)amino)-5-fluoropyrimidin-4-yl)-2-methylphenyl)ethyl)-1,2,4-oxadiazole-5-carboxamide]: the 50% degradation concentration (DC50) in experiment [1] is > 2000 nM. Besides, in experiment [2], the IC50 was > 10 µM.

As to `Cc1cc(-c2cc(Nc3ncc(N4CCN(CC5CCN(c6ccc(N7CCC(=O)NC7=O)cc6)CC5)CC4)s3)ncn2)c(F)cc1[C@@H](C)NC(=O)c1nc(C(C)(C)C)no1` [Example 71, (R)-3-(tert-butyl)-N-(1-(4-(6-((5-(4-((1-(4-(2,4-dioxotetrahydropyrimidin-1(2H)-yl)phenyl)piperidin-4-yl)methyl)piperazin-1-yl)thiazol-2-yl)amino)pyrimidin-4-yl)-5-fluoro-2-methylphenyl)ethyl)-1,2,4-oxadiazole-5-carboxamide], the DC50 in experiment [1] came to 17.9 nM. For the same molecule, in experiment [2], the IC50 was > 10 µM.

As to `Cc1cc(-c2cc(Nc3nnc(N4CCN(CC5CCN(c6ccc(N7CCC(=O)NC7=O)cc6)CC5)CC4)s3)ncn2)ccc1[C@@H](C)NC(=O)c1nc(C(C)(C)C)no1` [Example 72, (R)-3-(tert-butyl)-N-(1-(4-(6-((5-(4-((1-(4-(2,4-dioxotetrahydropyrimidin-1(2H)-yl)phenyl)piperidin-4-yl)methyl)piperazin-1-yl)-1,3,4-thiadiazol-2-yl)amino)pyrimidin-4-yl)-2-methylphenyl)ethyl)-1,2,4-oxadiazole-5-carboxamide], the DC50 in experiment [1] amounted to 11.2 nM. The IC50 in experiment [2] was 1.91 µM.

These data come from US12521440B2, “Degradation of bruton's tyrosine kinase (BTK) by conjugation of BTK inhibitors with E3 ligase ligand and methods of use” (BeOne Medicines I GmbH, priority 2021, dated 2026).
